Drawing on patent US7906522B2, “2-aminoquinazoline derivatives” (Kyowa Hakko Kirin Co., Ltd, priority 2005, dated 2011), this text covers inhibition and melting point for 24 compounds.

One series addresses T1, Activated human p38α (Homo sapiens, UniProt Q16539).
T1 construct: purchased Upstate Biotechnology Inc. 14-251
Description: p38MAP kinase inhibition test. Format: biochemical. Particulars: at a concentration of 1 μmol/L; substrate myelin basic protein, ATP 20 μmol/L, [γ-32P]ATP; read-out: enzyme inhibitory activity. In a few lines:
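Phosphorylation of myelin basic protein (20 μg/assay) by the kinase measured via [γ-32P]ATP incorporation at 20 μmol/L ATP, pH 7.2 MOPS buffer, 30° C. for 15 min. Labelled substrate bound to P81 paper, washed, and quantified by scintillation counting; compounds added in DMSO.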

Where only a bound is given, the exact number is not on record here.

T1 sequence (Q16539 whole entry): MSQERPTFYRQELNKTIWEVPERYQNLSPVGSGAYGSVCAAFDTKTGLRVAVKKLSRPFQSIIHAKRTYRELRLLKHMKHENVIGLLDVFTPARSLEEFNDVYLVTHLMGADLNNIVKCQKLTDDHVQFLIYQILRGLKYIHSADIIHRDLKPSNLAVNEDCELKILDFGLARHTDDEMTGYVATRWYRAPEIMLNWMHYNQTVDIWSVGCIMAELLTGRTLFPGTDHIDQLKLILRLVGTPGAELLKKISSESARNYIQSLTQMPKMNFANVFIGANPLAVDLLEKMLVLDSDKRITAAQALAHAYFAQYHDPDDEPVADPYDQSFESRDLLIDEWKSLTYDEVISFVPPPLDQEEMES

Take `Cc1ccc(C(=O)NC2CC2)cc1-c1cc2cnc(Nc3c(Cl)cccc3Cl)nc2cc1O` [Compound 319, 6-(5-Cyclopropylcarbamoyl-2-methylphenyl)-2-(2,6-dichloroanilino)-7-hydroxyquinazoline]: the melting point lay in the range of 190 to 193 °C. In addition, the inhibition at 1 µM at Activated human p38α is no less than 50%.
Taken in the same sequence, the figures for `CC(C)Nc1ncc2cc(-c3cccc(C(=O)Nc4cccc(N5CCCC5)c4)c3)c(O)cc2n1` [Compound 330, 7-Hydroxy-2-isopropylamino-6-{3-[3-(pyrrolidin-1-yl)phenylcarbamoyl]phenyl}quinazoline] were 251 to 253 °C and no less than 50%.
Taken in the same sequence, the figures for `COc1c(NC(=O)c2ccc(C)c(-c3cc4cnc(NC(C)C)nc4cc3O)c2)cc(C(C)(C)C)cc1NS(C)(=O)=O` [Compound 348, 6-{5-[(5-tert-Butyl-2-methoxy-3-methylsulfonylaminophenyl)carbamoyl]-2-methylphenyl}-7-hydroxy-2-(isopropylamino)quinazoline] were 251 to 253 °C and no less than 50%.
On the same counts, the results for `CC(C)Nc1ncc2cc(-c3cccc(NC(=O)c4cc(F)cc(N5CCCC5)c4)c3)c(O)cc2n1` [Compound 351, 6-{3-[3-Fluoro-5-(pyrrolidin-1-yl)benzoylamino]phenyl}-7-hydroxy-2-(isopropylamino)quinazoline] are 229 °C and no less than 50%.
Regarding `CC(C)Nc1ncc2cc(-c3cccc(NC(=O)c4cccc(N(C)C)c4)c3)c(O)cc2n1` [Compound 291, 6-{3-[(3-Dimethylaminophenyl)carbonylamino]phenyl}-7-hydroxy-2-(isopropylamino)quinazoline], the melting point amounted to 150 °C. For the same compound, the inhibition at 1 µM at Activated human p38α was no less than 50%.
Regarding `COc1cc2nc(NC(C)C)ncc2cc1-c1cc(C(=O)NC2CC2)ccc1C` [Compound 236, 6-(5-Cyclopropylcarbamoyl-2-methylphenyl)-2-isopropylamino-7-methoxyquinazoline], the melting point lay within 122 to 125 °C. The inhibition at 1 µM on Activated human p38α is no less than 50%.
On the same counts, the results for `CC(C)Nc1ncc2cc(-c3cccc(NC(=O)c4cccc(N5CCOCC5)c4)c3)c(O)cc2n1` [Compound 340, 7-Hydroxy-2-isopropylamino-6-[3-(3-morpholinobenzoylamino)phenyl]quinazoline] are 230 °C and no less than 50%.
On the same counts, the results for `CC(C)Nc1ncc2cc(-c3cccc(C(=O)Nc4ccnc(N5CCOCC5)c4)c3)c(O)cc2n1` [Compound 342, 7-Hydroxy-2-isopropylamino-6-{3-[(2-morpholinopyridin-4-yl)carbamoyl]phenyl}quinazoline] are 255 to 257 °C and no less than 50%.
On the same counts, the results for `Cc1ccc(C(=O)NC2CC2)cc1-c1cc2cnc(NC(C)C)nc2cc1O` [Compound 322, 6-(5-Cyclopropylcarbamoyl-2-methylphenyl)-7-hydroxy-2-(isopropylamino)quinazoline] are 156 to 160 °C and no less than 50%.
Turning to `CC[C@H](C)Nc1ncc2cc(-c3cccc(NC(=O)c4ccnc(N5CCOCC5)c4)c3)c(O)cc2n1` [Compound 363, (S)-2-(sec-butylamino)-7-hydroxy-6-{3-[(2-morpholinopyridin-4-yl)carbonylamino]phenyl}quinazoline], the melting point lay in the range of 183 to 184 °C. Besides, the inhibition at 1 µM on Activated human p38α is no less than 50%.
`CCC(CC)Nc1ncc2cc(-c3cccc(NC(=O)c4ccnc(N5CCOCC5)c4)c3)c(O)cc2n1` [Compound 368, 2-(3-Pentylamino)-7-hydroxy-6-{3-[(2-morpholinopyridin-4-yl)carbonylamino]phenyl}quinazoline] gave a melting point of 154 to 155 °C. Further, on Activated human p38α, the inhibition at 1 µM was no less than 50%.
On the same counts, the results for `Cc1cccc(C)c1Nc1ncc2cc(-c3cccc(NC(=O)c4ccnc(N5CCOCC5)c4)c3)c(O)cc2n1` [Compound 312, 2-(2,6-Dimethylanilino)-7-hydroxy-6-{3-[(2-morpholinopyridin-4-yl)carbonylamino]phenyl}quinazoline] are 185 °C and no less than 50%.
In turn, `CC(C)Nc1ncc2cc(-c3cccc(NC(=O)c4ccnc(N5CCCC5)c4)c3)c(O)cc2n1` [Compound 336, 7-Hydroxy-2-isopropylamino-6-{3-[2-(pyrrolidin-1-yl)pyridin-4-ylcarbonylamino]phenyl}quinazoline] displayed a melting point of 248 to 249 °C. Further, the inhibition at 1 µM at Activated human p38α was no less than 50%.
Taken in the same sequence, the figures for `Cc1ccc(-n2nc(C)cc2NC(=O)c2ccc(C)c(-c3cc4cnc(NC(C)C)nc4cc3O)c2)cc1` [Compound 357, 7-Hydroxy-2-isopropylamino-6-{2-methyl-5-[5-methyl-2-(4-methylphenyl)-2H-pyrazol-3-ylcarbamoyl]phenyl}quinazoline] were 173 to 175 °C and no less than 50%.
On the same counts, the results for `CC(C)Nc1ncc2cc(-c3cccc(NC(=O)c4ccnc(N5CCCCC5)c4)c3)c(O)cc2n1` [Compound 349, 7-Hydroxy-2-isopropylamino-6-{3-[(2-piperidinopyridin-4-yl)carbonylamino]phenyl}quinazoline] are 226 to 227 °C and no less than 50%.
On the same counts, the results for `CCC(CC)Nc1ncc2cc(-c3cc(C(=O)NC4CC4)ccc3C)c(O)cc2n1` [Compound 365, 6-(5-Cyclopropylcarbamoyl-2-methylphenyl)-2-(3-pentylamino)-7-hydroxyquinazoline] are 210 °C and no less than 50%.
In turn, `Cc1ccccc1-c1cc2cnc(Nc3ccccc3)nc2cc1O` [Compound 178, 2-Anilino-7-hydroxy-6-(2-methylphenyl)quinazoline] displayed a melting point of 234 to 236 °C. The inhibition at 1 µM at Activated human p38α is no less than 50%.
Taken in the same sequence, the figures for `CC[C@H](C)Nc1ncc2cc(-c3ccccc3Cl)c(O)cc2n1` [Compound 163, (S)-2-(sec-Butylamino)-6-(2-chlorophenyl)-7-hydroxyquinazoline] were 173 to 175 °C and no less than 50%.
`CC(C)Nc1ncc2cc(-c3cccc(NC(=O)c4ccnc(-c5ccc(F)cc5)c4)c3)c(O)cc2n1` [Compound 355, 6-{3-[2-(4-Fluorophenyl)pyridin-4-ylcarbonylamino]phenyl}-7-hydroxy-2-(isopropylamino)quinazoline] gave a melting point of 243 to 245 °C. The inhibition at 1 µM at Activated human p38α was no less than 50%.
On the same counts, the results for `CC(C)Nc1ncc2cc(-c3cccc(C(=O)Nc4cccc(N(C)C)c4)c3)c(O)cc2n1` [Compound 325, 6-{3-[(3-Dimethylaminophenyl)carbamoyl]phenyl}-7-hydroxy-2-(isopropylamino)quinazoline] are 236 °C and no less than 50%.
Taken in the same sequence, the figures for `Cc1ccccc1-c1cc2cnc(NC3CCCCC3)nc2cc1O` [Compound 171, 2-(Cyclohexylamino)-7-hydroxy-6-(2-methylphenyl)quinazoline] were 158 °C and no less than 50%.
`CC[C@H](C)Nc1ncc2cc(-c3ccccc3C)c(O)cc2n1` [Compound 169, (S)-2-(sec-Butylamino)-7-hydroxy-6-(2-methylphenyl)quinazoline] came in with a melting point of 165 °C. The inhibition at 1 µM on Activated human p38α is no less than 50%.
On the same counts, the results for `Cc1cc(C)c(Nc2ncc3cc(-c4ccccc4C)c(O)cc3n2)c(C)c1` [Compound 300, 7-Hydroxy-6-(2-methylphenyl)-2-(2,4,6-trimethylanilino)quinazoline] are 142 °C and no less than 50%.
Taken in the same sequence, the figures for `CCc1cccc(C)c1Nc1ncc2cc(-c3ccccc3C)c(O)cc2n1` [Compound 180, 2-(2-Ethyl-6-methylanilino)-7-hydroxy-6-(2-methylphenyl)quinazoline] were 130 to 133 °C and no less than 50%.
